Data set [1] is described as follows: Coculture of A549 and K562 cells treated with Mitoxantrone, viability of K562 cells. In kind it is cell-based. The settings on record: human, K562 cells cocultured with A549 cells, K562 coculture with A549, Mitoxantrone 0.4 M.
Data set [2] is described as follows: Cell activity/viability of K562 cells treated with Mitoxantrone (Sulforhodamine B kit), single culture. In kind it is cell-based. The note with it: human, K562 cells (no ABC transporter); K562 single culture, Mitoxantrone 0.4 M, incubated for 96 hours. The protocol:
(§1) This was performed in the same manner as in Example 1, except that K562 (chronic myelogenous leukemia) cells having no ABC transporter were incubated in place of the A549 cells.
(§2) This was performed in the same manner as in Example 1, except that K562 cells having no ABC transporter were used in place of the A549 cells.

Data set [3] concerns K562 (chronic myelogenous leukemia) cells having no ABC transporter. Described as above. Format: cell-based. The protocol: as §1, §2
The nature of data set [4]: Coculture of A549 and K562 cells treated with Mitoxantrone, viability of A549 cells. In kind it is cell-based. The settings on record: human, A549 cells cocultured with K562 cells, A549 co-cultured with K562, Mitoxantrone 0.4 M.
Data set [5] relates to A549 (human lug carcinoma cell ATCC no.CCL-185), having ABC transporters of the ABCG2 family.

Read-outs that look alike come from different tables or passages of the source.

The viability is a per cent measure of how many cells are alive, often set against a control. High values mean less harm to the cells, low ones more harm to the cells. In the case of `O=C1c2c(O)ccc(O)c2C(=O)c2c(NCCNCCO)ccc(NCCNCCO)c21` [Mitoxantrone], the viability at 96 h, 0.4 M was determined as 17% in data set [1], 28% in data set [2] and 92% in data set [4]. The cell activity result is “about 60%” in data set [3] (K562, Mitoxantrone concentration of 0.1M (FIG. 6)); “almost zero” in data set [3] (K562, Mitoxantrone concentration of 0.2M (FIG. 6)); 98% in data set [5] (A549, Mitoxantrone concentration of 0.4M (FIG. 6)); 86% in data set [5] (A549, Mitoxantrone concentration of 1.0M (FIG. 6)); 68% in data set [5] (A549, Mitoxantrone concentration of 2.6 (FIG. 6)).

The values are drawn from patent publication US20070105215A1, “METHOD OF CULTURING STEM CELLS USING ABC TRANSPORTERS” (SAMSUNG ELECTRONICS CO., LTD., priority 2005, published 2007).
